Values joined by “and” are separate entries in the source; they are usually repeats but may differ in a detail not shown here. Equal values may be shown once.
Tests used:
Aβ1-40 = Aβ1-40 (Homo sapiens, UniProt P05067); assay: Dissolution / prevention of metal-induced Aβ aggregates (filtration, 6E10 immunodetection); assay type: biochemical; conditions: "we found", with reference to Atamna, 2004
Description: Aβ1-40 (10 ng in 200 μl) aggregation is induced by incubation (30 min, RT) with ZnCl2 (25 μM in TBS, pH 7.4), CuCl2 (5 μM in TBS, pH 6.8), or acidic conditions (pH 5.5, MES buffered saline). Aggregates are transferred to a 0.2μ nylon membrane by filtration using a 96-well ELIFA apparatus (Pierce). The aggregates are then washed (200 μl/well) with TBS alone, TBS containing 2 μM EDTA (control), or TBS with uroproporphyrin or coproporphyrin at varying concentrations (0.1 μM-1 mM). The membrane is fixed, probed with the anti-Aβ monoclonal antibody 6E10 (Senetek), and developed for exposure to ECL film. Quantification of retained, aggregated Aβ is performed by densitometry, calibrated against known amounts of the peptide.
Because metals, such as Zn++ and Cu+, trigger the pathologic aggregation of Aβ, an important causal factor in Alzheimers disease, we tested the ability of endogenous prophyrins to prevent Aβ aggregation using published methodology. […] The effect of porphyrins on Aβ is likely mediated by their ability to chelate metals. […] Endogenous porphyrins can be used directly, or their synthesis can be triggered in tissue by applying their precursors and/or cofactors, for therapeutic purposes including the treatment and prevention of disorders that involve Aβ aggregation and/or metal toxicity. […]

[1] = Absorption spectroscopy of porphyrin intermediates on addition of metal (metal binding), +Mn; parameters: key to Cpor 370 nm peak, change after metal addition / Cpor 500 nm peak, change after metal addition / Cpor 538 nm peak, change after metal addition / Cpor 560 nm peak, change after metal addition / Cpor 608 nm peak, change after metal addition / Upor 395 nm peak, change after metal addition / Upor 498 nm peak, change after metal addition / Upor 540 nm peak, change after metal addition / Upor 565 nm peak, change after metal addition / Upor 612 nm peak, change after metal addition: Dis; peak disappeared.; Inc; Peak increased.; Dec; peak decreased.; = indicates no difference from the control.; (a)indicates new peak
Source text: (§1) In the determining step, the individual is identified as subject to or predisposed to a polycarboxylated porphyrin-binding metal toxicity. Polycarboxylated porphyrin-binding metal toxicities include metal toxicity from environmental exposure, and disorders characterized by disturbances in metal ion homeostasis, particularly disorders that result in metal ion accumulation. Examples of such disorders include Wilson's disease, in which copper transport is defective (e.g. Nakayama, 2000); aceruloplasminemia, an iron metabolism disorder (e.g. Miyajima, 2003); and diseases involving metal-facilitated protein aggregation such as zinc, copper, or iron facilitated-aggregation of Aβ in Alzheimer's disease (e.g. Atamna, 2004), and aluminum, copper, iron, cobalt, or manganese facilitated-aggregation of α-synuclein in Parkinson's disease (e.g. Uversky, 2001). Conventional spectroscopy assays (e.g. Beer, 2003) can be used to determine whether a given polycarboxylated porphyrin binds the toxic metal of interest (e.g. Example 2, below). In particular embodiments, the metal is selected from the group consisting of Al^+++, Hg^++, […], Cu^+, Mn^+, and Zn^++.
(§2) We studied the interaction between metals and porphyrin intermediates.

[2] = Absorption spectroscopy of porphyrin intermediates on addition of metal (metal binding), +Cu; parameters: key to Cpor 370 nm peak, change after metal addition / Cpor 500 nm peak, change after metal addition / Cpor 538 nm peak, change after metal addition / Cpor 560 nm peak, change after metal addition / Cpor 608 nm peak, change after metal addition / Upor 395 nm peak, change after metal addition / Upor 498 nm peak, change after metal addition / Upor 540 nm peak, change after metal addition / Upor 565 nm peak, change after metal addition / Upor 612 nm peak, change after metal addition: Dis; peak disappeared.; Inc; Peak increased.; Dec; peak decreased.; = indicates no difference from the control.; (a)indicates new peak
Source text: as §1, §2

[3] = Absorption spectroscopy of porphyrin intermediates on addition of metal (metal binding), +Zn; parameters: key to Cpor 500 nm peak, change after metal addition / Cpor 538 nm peak, change after metal addition / Cpor 560 nm peak, change after metal addition / Cpor 608 nm peak, change after metal addition / Upor 498 nm peak, change after metal addition / Upor 540 nm peak, change after metal addition / Upor 565 nm peak, change after metal addition / Upor 612 nm peak, change after metal addition: Dis; peak disappeared.; Inc; Peak increased.; Dec; peak decreased.; = indicates no difference from the control.; (a)indicates new peak
Source text: as §1, §2

Aβ1-40, sequence (P05067 672-711 limits assumed): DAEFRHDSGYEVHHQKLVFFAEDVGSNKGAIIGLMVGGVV

## C=CC1=C(C)c2cc3[n-]c(cc4[n-]c(cc5nc(cc1n2)C(C)=C5C=C)c(C)c4CCC(=O)O)c(CCC(=O)O)c3C.[Fe+2] [heme]
Aβ1-40
  Displacement of metals from aggregated Aβ and disaggregation: displace metals from the aggregated Aβ and disaggregate the complex

## O=C(O)CCC1=C(CC(=O)O)c2cc3[nH]c(cc4nc(cc5[nH]c(cc1n2)c(CC(=O)O)c5CCC(=O)O)C(CCC(=O)O)=C4CC(=O)O)c(CC(=O)O)c3CCC(=O)O [Upor, Uroporphyrin III]
[1]
  New peak after metal addition (marked a): 460a nm and 545a nm and 575a nm
  Upor 395 nm peak, change after metal addition: Inc
  Upor 498 nm peak, change after metal addition: Dis
  Upor 540 nm peak, change after metal addition: Dis
  Upor 565 nm peak, change after metal addition: Dis
  Upor 612 nm peak, change after metal addition: Dis
[2]
  New peak after metal addition (marked a): 525a nm
  Upor 395 nm peak, change after metal addition: Inc
  Upor 498 nm peak, change after metal addition: Dis
  Upor 540 nm peak, change after metal addition: Dis
  Upor 565 nm peak, change after metal addition: Inc
  Upor 612 nm peak, change after metal addition: Dis
[3]
  New peak after metal addition (marked a): 575a nm
  Upor 498 nm peak, change after metal addition: Dis
  Upor 540 nm peak, change after metal addition: Inc
  Upor 565 nm peak, change after metal addition: Dis
  Upor 612 nm peak, change after metal addition: Dis
[3]; control peak 395 nm
  Upor 395 nm peak after metal addition (peak position): 405 nm

## Coproporphyrin III [Cpor]
[1]
  Cpor 370 nm peak, change after metal addition: =
  Cpor 500 nm peak, change after metal addition: =
  Cpor 538 nm peak, change after metal addition: =
  Cpor 560 nm peak, change after metal addition: =
  Cpor 608 nm peak, change after metal addition: =
[2]
  Cpor 370 nm peak, change after metal addition: =
  Cpor 500 nm peak, change after metal addition: =
  Cpor 538 nm peak, change after metal addition: Dec
  Cpor 560 nm peak, change after metal addition: Dec
  Cpor 608 nm peak, change after metal addition: Dis
  New peak after metal addition (marked a): 525a nm
[3]
  Cpor 500 nm peak, change after metal addition: Dis
  Cpor 538 nm peak, change after metal addition: Inc
  Cpor 560 nm peak, change after metal addition: Inc
  Cpor 608 nm peak, change after metal addition: Dis
  New peak after metal addition (marked a): 575a nm
[3]; control peak 370 nm
  Cpor 370 nm peak after metal addition (peak position): 400 nm
